Measurements taken from patent publication US20240034929A1, “SCINTILLATION MATERIALS AND METHODS” (Florida State University Research Foundation, Inc., priority 2022, published 2024).

Experiment: Thermogravimetric analysis (thermal stability)
Assay type: physicochemical
Details: heated from room temperature to 700° C. at 5° C./min under argon flux
Source text: More detailed crystallographic results are provided in FIGS. 17a and 17b and the table in FIG. 7. The 0D structure at the molecular level was clearly observed in (TPA-P)2ZnBr4 with ZnBr4^2− tetrahedrons completely isolated and surrounded by TPA-P^+ cations. The zinc center adopted a typical tetra-coordinated geometry bonded to the bromide ions, with an average Zn—Br bond length of 2.41 Å and bond angle of 109.740 (see also the table in FIG. 8).
Thermal Stability Analysis: TGA studies were done using a TA instruments Q600 system. The sample was heated from room temperature to 700° C. at a 5° C./min rate under an argon flux of 100 ml/min.

onset weight loss (thermogravimetric analysis): 211 °C
SMILES: CCC[n+]1ccc(-c2ccc(N(c3ccccc3)c3ccccc3)cc2)cc1.[Br-] [TPA-PBr, 4-(4-(diphenylamino)phenyl)-1-(Propyl)-pyrindin-lium bromide]
